What all share (type): cell-based
What all share (details): Oocyte

In assay [1] the target is Potassium voltage-gated channel subfamily A member 1 (Mus musculus) (UniProt P16388). As to the kind of experiment: Inhibition of mouse Kv1.1 channel expressed in Xenopus laevis oocytes assessed as -50 mV current-induced channel closing time at 20 uM after 2 mins by two-electrode voltage clamp assay (reference value: 14.6 +/- 0.3 ms).
For assay [2] the target is unchanged. As to the kind of experiment: Inhibition of mouse Kv1.1 channel expressed in Xenopus laevis oocytes assessed as decrease in +60 mV current-induced time constant of activation at 20 uM after 2 mins by two-electrode voltage clamp assay relative to control. Background: Two-electrode voltage clamp is typically applied to oocytes expressing channels or transporters.

Assay [3] shares this target. As to the kind of experiment: Inhibition of mouse Kv1.1 channel expressed in Xenopus laevis oocytes assessed as reduction of current amplitude at 20 uM after 2 mins by two-electrode voltage clamp assay relative to control.
The target is the same in assay [4]. The experiment in a line: Inhibition of mouse Kv1.1 channel expressed in Xenopus laevis oocytes assessed as -50 mV current-induced channel closing time at 8 uM after 2 mins by two-electrode voltage clamp assay (reference value: 14.6 +/- 0.3 ms).
Assay [5] shares this target. The experiment in a line: Inhibition of mouse Kv1.1 channel expressed in Xenopus laevis oocytes assessed as decrease in +60 mV current-induced time constant of activation at 8 uM after 2 mins by two-electrode voltage clamp assay relative to control.
Assay [6] shares this target. As to the kind of experiment: Inhibition of mouse Kv1.1 channel expressed in Xenopus laevis oocytes assessed as reduction of current amplitude at 8 uM after 2 mins by two-electrode voltage clamp assay relative to control.
For assay [7] the target is unchanged. The experiment in a line: Inhibition of mouse Kv1.1 channel expressed in Xenopus laevis oocytes assessed as decrease in +60 mV current-induced time constant of activation at 15 uM after 2 mins by two-electrode voltage clamp assay relative to control.
Assay [8] shares this target. The experiment in a line: Inhibition of mouse Kv1.1 channel expressed in Xenopus laevis oocytes assessed as reduction of current amplitude at 15 uM after 2 mins by two-electrode voltage clamp assay relative to control.
For assay [9] the target is unchanged. The experiment in a line: Inhibition of mouse Kv1.1 channel expressed in Xenopus laevis oocytes assessed as -50 mV current-induced channel closing time at 15 uM after 2 mins by two-electrode voltage clamp assay (reference value: 14.6 +/- 0.3 ms).

Structures are written as SMILES.

Sequence of Potassium voltage-gated channel subfamily A member 1 (Mus musculus) (P16388 whole entry): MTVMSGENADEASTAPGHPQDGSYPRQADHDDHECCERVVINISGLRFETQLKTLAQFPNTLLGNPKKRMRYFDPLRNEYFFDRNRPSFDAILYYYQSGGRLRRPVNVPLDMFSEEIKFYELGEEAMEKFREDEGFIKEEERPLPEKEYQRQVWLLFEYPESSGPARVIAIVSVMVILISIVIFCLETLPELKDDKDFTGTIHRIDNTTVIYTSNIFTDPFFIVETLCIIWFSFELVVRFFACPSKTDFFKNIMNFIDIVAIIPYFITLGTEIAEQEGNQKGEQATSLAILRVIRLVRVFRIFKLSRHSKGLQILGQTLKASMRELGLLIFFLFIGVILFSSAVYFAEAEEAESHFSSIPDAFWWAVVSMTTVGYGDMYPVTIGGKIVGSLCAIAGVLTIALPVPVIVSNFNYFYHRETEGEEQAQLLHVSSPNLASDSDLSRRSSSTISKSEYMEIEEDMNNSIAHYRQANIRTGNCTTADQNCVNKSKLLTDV

Consider `NCCc1c(Sc2[nH]c3cc(Br)ccc3c2CCN)[nH]c2cc(Br)ccc12`, for which, in assay [1], the TIME was determined as 9.28e-06 h. In addition, the fold change (FC) in assay [2] is 5; in assay [3] it was 0.59.

In the case of `NCCc1c(SSSc2[nH]c3cc(Br)ccc3c2CCN)[nH]c2cc(Br)ccc12`, the TIME in [4] is 4.06e-06 h. Besides, the fold change (FC) in assay [5] came out at 3. Moreover, the inhibition in assay [6] turned out to be 35%.

For the compound `NCCc1c(SSc2[nH]c3cc(Br)ccc3c2CCN)[nH]c2cc(Br)ccc12`, the TIME in assay [4] came out at 4.94e-06 h; in [9], 3.81e-06 h. The fold change (FC) in assay [5] came out at 3; in assay [7], 5; in assay [8], 0.69. In assay [6], the inhibition worked out at 15%.

Broadly, the inhibition is the drop in the measured response relative to a control, in per cent.

Source of the values: ChEMBL document CHEMBL2429722, “Synthesis of the non-peptidic snail toxin 6-bromo-2-mercaptotryptamine dimer (BrMT)(2), its lower and higher thio homologs and their ability to modulate potassium ion channels” (Bioorg Med Chem Lett, 2013).
